Assay results taken from US8592421B2, “Cyclic bioisosters of purine system derivatives and a pharmaceutical composition based thereon” (priority 2003, dated 2013).
Marks after values point to notes of the source that are not given here.

What was measured:
plasma hemostasis [1] = test: Partial activated thromboplastin time (PATT) after intravenous administration; assay type: in vivo, rabbit; conditions: for effect on the PATT: doses 15.0, 30.0, 60.0 mg/kg
Method: (§1) The static parameters of the blood and plasma coagulation (partial activated thromboplastin time, thrombin time, maximum coagulation activity (test for auto coagulation) were determined using the Behnk Electronic coagulometer (Germany). The operating principle of this instrument is based on the fact that the formed blood clot breaks the contacts of the pulse counter in the flask-pin circuit, said pin permanently oscillating in a vertical plane. The moment of formation of the clot is registered by stopping the stop watch hand.
(§2) The measurements were effected at a constant temperature of 37° C. maintained by a temperature control unit.

plasma hemostasis [2] = test: Thrombin time after intravenous administration; assay type: in vivo, rabbit
Method: The investigations were performed on 72 rabbits of the “Chinchilla” breed with a mass of 2.5±0.3 kg, who were administered which solutions of compounds 2, 15, 21, 37 in doses of 15, 30 and 60 mg/kg intravenously. The experiments included the thrombin-test (series No. 7300) and the coagulability-test (series No. 5000) purchased from the scientific-and-production association (SPA) “Renam”, thromboplastin (series No. 240600) and calcium chloride purchased from the SPA “MedioLab”
as §1, §2
The “thrombin time” characterizes the rate of transformation of fibrinogen into fibrin. It was determined by measuring the coagulation time of plasma deprived of thrombocytes under the effect of thrombin standardized by the control plasma.
0.2 ml of a thrombin solution was added to 0.2 ml of the test blood plasma of experimental animals, from whom the blood was taken 15, 30, 60 and 120 minutes after the intravenous administration of compounds 2, 15, 21, 37 according to the invention in doses of 15, 30, 60 mg/kg incubated for 1 minute at a temperature of 37° C. and the time of formation of clot T2 in seconds in a coagulometer of the Behnk Electronic Company (Germany).

[3] = Morphine abstinence model: nitrites/nitrates NOX− in blood plasma, liver and brain; assay type: in vivo, rats Wistar; conditions: 20.0 mg/kg intramuscularly; for Nitrites in liver: control 0.260 ± 0.023; for Nitrites in brain: Cortex of cerebrum: control 4.63 ± 0.29; for Nitrites in brain: Mesencephalon: control 5.66 ± 0.19; for Nitrites in brain: Hypothalamus: control 6.57 ± 0.50; for Nitrites in blood plasma: control 18.30 ± 2.14
Method: The experiments were carried out on rats in series of 7 animals on each compound according to the invention. Non-morphinized animal with not administered with compounds according to the invention were used as a control group. […] Then the rats were decapitated, the blood from somnolent arteries was collected in test tubes with solution EDTA as an anticoagulant, centrifuged at 1500 g for 15 minutes at 4° C.
To estimate the intensity of metabolism of nitrogen oxide in rats, quantitative determination of stable metabolites of nitrogen oxide—nitrites and nitrates NOX^− in the blood plasma, supernatanates of the liver and thymus gland, a study was conducted by a spectrometric method, and in the brain supernatanates by a […] method.
The spectrometric method is based the reaction of nitrites with the Griss reagent (a mixture of 2% solution of sulfanilamide and 0.2% N-(1-naphthyl)ethylene diamine. At the first step the nitrite reacts with sulfanilamide with formation of diazonium salt, and then with the second component to form azo dye with an adsorption maximum at 540 nm. For reduction of nitrates into nitrites, a fermentative method was used with bacterial reductase nitrate (Grisham M. B. et al., 1995). The samples of plasma and supernathant of the liver deproteinizated at 100° C. for 5 minutes incubated for 30 minutes at 37° C. in 50.0 mM of HEPES pH 7.4 in the presence of 0.2 unit/ml of Aspergillus reductase nitrate, 5.0 mkM of FAD and 0.1 mM of NAD-Ph. At the end of the reaction lactate dehydrogenase and pyruvate were added for isolation of NAD-Ph interfering with the Griss reaction. Then the Griss reagent was added and after 10-minute incubation the light absorption of the samples was measured at 540 nm. To amount of NOX^− was calculated using sodium nitrate as a standard.
The fluorometric method is based on calculation of the nitrite level by the intensity fluorescence of 2,3-diaminonaphthotriazole, a product of reaction of 2,3-diaminonaphthalene (DAN) and nitrite in an acidic medium (Misko T. R., Schilling R. J., Salvemini D. et al. “A fluorometric assay for the measurement of nitrite of biological samples”. Anal. Biochem., 1993, v. 214, p. 11-16). The brain supernatants deproteinizated at 100° C. were placed in a nitrite regenerating system containing 0.125 unit/ml of nitrate reductases, 25 mkM NADPh and 25 mkM FAD prepared in a 20-mM Tris-HCl buffer with pH 7.6 and incubated for 30 minutes at 37° C. The lactate dehydrogenase/pyruvate system was used for oxidation of the NADPh. Then 316 mkM of the DAN solution in 0.62 M of hydrochloric acids were added and the mixture was incubated for 10 minutes in darkness.
280 mM of NaOH were added for stabilization of the fluorescence of the formed 2,3-diaminonaphthotriazole. The fluorescence intensity was measured in the spectrofluorimeter Hitachi F-3000 at a wavelength of excitation of 365 nm and an emission of 405 nm. The concentration of NOX^− in the brain was calculated by means of a standard solution of sodium nitrate.

[4] = 15.0 mg/kg intravenously, after 15 minutes, control 37.0 ± 0.2
[5] = 15.0 mg/kg intravenously, after 30 minutes, control 37.0 ± 0.2
[6] = 15.0 mg/kg intravenously, after 60 minutes, control 37.0 ± 0.2
[7] = 15.0 mg/kg intravenously, after 120 minutes, control 37.0 ± 0.2
[8] = 30.0 mg/kg intravenously, after 15 minutes, control 33.3 ± 0.8
[9] = 30.0 mg/kg intravenously, after 30 minutes, control 33.3 ± 0.8
[10] = 30.0 mg/kg intravenously, after 60 minutes, control 33.3 ± 0.8
[11] = 30.0 mg/kg intravenously, after 120 minutes, control 33.3 ± 0.8
[12] = 60.0 mg/kg intravenously, after 15 minutes, control 32.5 ± 0.3
[13] = 60.0 mg/kg intravenously, after 30 minutes, control 32.5 ± 0.3
[14] = 60.0 mg/kg intravenously, after 60 minutes, control 32.5 ± 0.3
[15] = 60.0 mg/kg intravenously, after 120 minutes, control 32.5 ± 0.3
[16] = 15.0 mg/kg intravenously, after 15 minutes, control 15.8
[17] = 15.0 mg/kg intravenously, after 30 minutes, control 15.8
[18] = 15.0 mg/kg intravenously, after 60 minutes, control 15.8
[19] = 15.0 mg/kg intravenously, after 120 minutes, control 15.8
[20] = 30.0 mg/kg intravenously, after 15 minutes, control 14.7
[21] = 30.0 mg/kg intravenously, after 30 minutes, control 14.7
[22] = 30.0 mg/kg intravenously, after 60 minutes, control 14.7
[23] = 30.0 mg/kg intravenously, after 120 minutes, control 14.7
[24] = 60.0 mg/kg intravenously, after 15 minutes, control 15.2
[25] = 60.0 mg/kg intravenously, after 30 minutes, control 15.2
[26] = 60.0 mg/kg intravenously, after 60 minutes, control 15.2
[27] = 60.0 mg/kg intravenously, after 120 minutes, control 15.2

Compound	PATT, T (plasma hemostasis [1]; [4])	PATT, T (plasma hemostasis [1]; [5])	PATT, T (plasma hemostasis [1]; [6])	PATT, T (plasma hemostasis [1]; [7])	PATT, T (plasma hemostasis [1]; [8])	PATT, T (plasma hemostasis [1]; [9])	PATT, T (plasma hemostasis [1]; [10])	PATT, T (plasma hemostasis [1]; [11])	PATT, T (plasma hemostasis [1]; [12])	PATT, T (plasma hemostasis [1]; [13])	PATT, T (plasma hemostasis [1]; [14])	PATT, T (plasma hemostasis [1]; [15])	effect on the PATT (plasma hemostasis [1])	thrombin time, T2 (plasma hemostasis [2]; [16])	thrombin time, T2 (plasma hemostasis [2]; [17])	thrombin time, T2 (plasma hemostasis [2]; [18])	thrombin time, T2 (plasma hemostasis [2]; [19])	thrombin time, T2 (plasma hemostasis [2]; [20])	thrombin time, T2 (plasma hemostasis [2]; [21])	thrombin time, T2 (plasma hemostasis [2]; [22])	other results
Nc1ccnc2c(=O)n([C@@H]3O[C@H](CO)[C@@H](O)[C@H]3O)[nH]c(=O)c12 [Compound 2, 4-amino-7-(β-D-ribofuranosile)pyrido[2,3-d]-6H-pyridazine-5,8-dione]	37.0 ± 0.1 s	37.0 ± 0.2 s	36.9 ± 0.1 s	37.0 ± 0.3 s	32.7 ± 0.5 s	32.0 ± 0.1 s	32.2 ± 0.1 s	32.1 ± 0.2 s	32.3 ± 0.2 s	32.4 ± 0.1 s	32.3 ± 0.1 s	32.4 ± 0.1 s	do not affect the PATT	16.2* s	17.0* s	16.0* s	15.3* s	17.8* s	18.4* s	19.2* s	thrombin time, T2 (plasma hemostasis [2]; [23]): 15.3* s; thrombin time, T2 (plasma hemostasis [2]; [24]): 16.0* s; thrombin time, T2 (plasma hemostasis [2]; [25]): 16.9* s; thrombin time, T2 (plasma hemostasis [2]; [26]): 15.9* s; thrombin time, T2 (plasma hemostasis [2]; [27]): 15.3* s
O=c1[nH][nH]c(=O)c2ncccc12.[Li] [Compound 6, lithium salt of pyrido[2,3-d]-6H-pyridazine-5,8-dione]																					Nitrites in liver ([3]; Control + Compound): 0.245 ± 0.010 nmol/mg of protein; Nitrites in brain: Cortex of cerebrum ([3]; Control + Compound): 4.59 ± 0.44 nmol/mg of protein; Nitrites in brain: Mesencephalon ([3]; Control + Compound): 7.01 ± 0.82 nmol/mg of protein; Nitrites in brain: Hypothalamus ([3]; Control + Compound): 6.94 ± 0.67 nmol/mg of protein; Nitrites in blood plasma ([3]; Control + Compound): 15.83 ± 1.21 mkmol/ml; Nitrites in liver ([3]; Control + Morphine + compound): 0.294 ± 0.02 nmol/mg of protein; Nitrites in brain: Cortex of cerebrum ([3]; Control + Morphine + compound): 5.12 ± 0.18 nmol/mg of protein; Nitrites in brain: Mesencephalon ([3]; Control + Morphine + compound): 5.76 ± 0.94 nmol/mg of protein; Nitrites in brain: Hypothalamus ([3]; Control + Morphine + compound): 6.72 ± 0.94 nmol/mg of protein; Nitrites in blood plasma ([3]; Control + Morphine + compound): 15.86 ± 1.20 mkmol/ml
Nc1cnc2c(=O)n([C@@H]3O[C@H](CO)[C@@H](O)[C@H]3O)[nH]c(=O)c2n1.[Na] [Compound 21, sodium salt of 3-amino-7-(β-D-ribofuranosile)pyrazine[2,3-d]-6H-pyridazine-5,8-dione]	37.1 ± 0.1 s	37.2 ± 0.1 s	36.9 ± 0.1 s	37.0 ± 0.2 s	32.8 ± 0.4 s	32.0 ± 0.1 s	32.2 ± 0.1 s	32.1 ± 0.1 s	32.0 ± 0.4 s	32.1 ± 0.2 s	32.0 ± 0.1 s	32.3 ± 0.2 s	do not affect the PATT	16.4* s	17.7* s	16.1* s	15.7* s	17.9* s	18.8* s	19.0* s	thrombin time, T2 (plasma hemostasis [2]; [23]): 15.6* s; thrombin time, T2 (plasma hemostasis [2]; [24]): 16.2* s; thrombin time, T2 (plasma hemostasis [2]; [25]): 17.7* s; thrombin time, T2 (plasma hemostasis [2]; [26]): 16.3* s; thrombin time, T2 (plasma hemostasis [2]; [27]): 15.7* s
O=c1[nH][nH]c(=O)c2nccnc12.[Li] [Compound 25, lithium salt of pyrazine[2,3-d]-6H-pyridazine-5,8-dione]																					Nitrites in liver ([3]; Control + Compound): 0.307 ± 0.012 nmol/mg of protein; Nitrites in brain: Cortex of cerebrum ([3]; Control + Compound): 4.47 ± 0.43 nmol/mg of protein; Nitrites in brain: Mesencephalon ([3]; Control + Compound): 6.98 ± 1.02 nmol/mg of protein; Nitrites in brain: Hypothalamus ([3]; Control + Compound): 6.87 ± 0.80 nmol/mg of protein; Nitrites in blood plasma ([3]; Control + Compound): 17.10 ± 2.05 mkmol/ml; Nitrites in liver ([3]; Control + Morphine + compound): 0.287 ± 0.01 nmol/mg of protein; Nitrites in brain: Cortex of cerebrum ([3]; Control + Morphine + compound): 4.91 ± 0.32 nmol/mg of protein; Nitrites in brain: Mesencephalon ([3]; Control + Morphine + compound): 5.91 ± 0.74 nmol/mg of protein; Nitrites in brain: Hypothalamus ([3]; Control + Morphine + compound): 6.67 ± 0.79 nmol/mg of protein; Nitrites in blood plasma ([3]; Control + Morphine + compound): 16.78 ± 2.11 mkmol/ml
